Values of other authors, collected in patent publication US20040028613A1, “Dopamine agonist formulations for enhanced central nervous system delivery” (Nastech Pharmaceutical Company Inc, priority 2001, published 2004).
One block for each compound: values may come before it.

Tests used:
[1] = tested on: ciliary function in epithelial cell cultures
[2] = intraduodenal, rats, with 1% (w/v) saline dispersion of polycarbophil
[3] = subcutaneous injection
[4] = tested on: ciliary movement of human adenoid tissue; conditions: for time in which ciliary movement was inhibited / inhibitory effect on ciliary movement at the end of 60 mm: 0.3%
[5] = 2.5 mg to 3.5 mg, hypotension, nausea, vomiting, impaired vision, diaphoresis, ashen coloring
[6] = aqueous solution, physiologic pH

Compound: 2-alkyl-4-hydroxyquinolines [pyo compound]
- concentration producing ciliostasis / inhibiting ciliary motility [1]: 50 µg/mL

Compound: 9-desglycinamide, 8-arginine vasopressin
- increase of bioavailability compared to aqueous solution without polymer [2]: 3-5 fold

- CSF level at 20 min ([3]; prior art, patients): 1.08 ng/mL
- Plasma level at 20 min ([3]; prior art, patients): 25.04 ng/mL
Compound: CN1CCc2cccc3c2[C@H]1Cc1ccc(O)c(O)c1-3 [SC Inj (ref. 1), apomorphine]

Compound: CC(=O)OC1CC2(C)C(CC(O)C3C4(C)CCC(O)C(C)C4CCC32C)C1=C(CCCC(C)C)C(=O)NCCS(=O)(=O)O (stereo not drawn) [STDHF, sodium taurodihydrofusidate]
- inhibition of ciliary movement ([4]; concentration of 0.3%, at 60 minutes): total

- CSF levels of active drug as percentage of levels found in the plasma [3]: less than 5%
Compound: CN1CCc2cccc3c2[C@H]1Cc1ccc(O)c(O)c1-3 [apomorphine]
- side effects of intranasal delivery [5]: extensive and serious side effects

Compound: CC(C)CC(N)B(O)O (stereo not drawn) [boro-leucine]
- effectiveness in enzyme inhibition relative to bestatin (aminopeptidases): more than 100 times
- effectiveness in enzyme inhibition relative to puromycin (aminopeptidases): more than 1000 times

Compound: C[C@H](CCC(=O)O)[C@H]1CC[C@H]2[C@@H]3CC[C@@H]4C[C@H](O)CC[C@]4(C)[C@H]3C[C@H](O)[C@]12C [deoxycholate, deoxycholic acid]
- time in which ciliary movement was inhibited [4]: 20 mm

Compound: CCN(CC)/[N+]([O-])=N/O.CCNCC [diethylamine/NO]
- rate (time) of NO release [6]: < 3 min

Compound: NCCN(CCN)/[N+]([O-])=N/O [diethylenetriamine/NO (DETANO)]
- rate (time) of NO release [6]: approximately 20 hours

Compound: C[C@H](CCC(=O)NCC(=O)O)[C@H]1CC[C@H]2[C@@H]3[C@H](O)C[C@@H]4C[C@H](O)CC[C@]4(C)[C@H]3C[C@H](O)[C@]12C [glycocholate, glycocholic acid]
- inhibitory effect on ciliary movement at the end of 60 mm [4]: no inhibitory effect

Compound: C[C@H](CCC(=O)NCCS(=O)(=O)O)[C@H]1CC[C@H]2[C@@H]3[C@H](O)C[C@@H]4C[C@H](O)CC[C@]4(C)[C@H]3C[C@H](O)[C@]12C [taurocholate, taurocholic acid]
- inhibitory effect on ciliary movement at the end of 60 mm [4]: no inhibitory effect

Compound: Laureth-9
- time in which ciliary movement was inhibited [4]: 10 mm
